These results are taken from US20060106099A1, “Novel inhibitors of ubiquitin isopeptidases” (priority 2002, published 2006).

Where two headings read alike, the source gives them in different places.

In data set [1] the test system is ubiquitin isopeptidases. Kind of data set: Ubiquitin isopeptidase activity, z-LRGG-AMC substrate, lysates of treated RKO and HCT 116 cells. It counts as cell-based, human. The following applies: cells treated 6, 20 or 60 μM, 12 h. On the procedure: RKO (upper) and HCT 116 ^+/+ cells (lower) were treated with DMSO vehicle, 6, 20, or 60 μM of Δ12-PGJ2, DBA, NSC-302979, or curcumin, 60 μM PGB1, 60 μM NSC-156236, or 60 μM DPTP for 12 h at 37° C. Cell lysates (0.5 mg/mL) from each treatment were incubated with the isopeptidase substrate, z-LRGG-AMC, for 3 h, 37° C. The amount of AMC cleaved by isopeptidase was determined fluorometrically, as described in Materials and Methods.
The second assay used a fluorescent tetrapeptide, z-LRGG-AMC, as a substrate that mimics the carboxy-terminus of ubiquitin. Isopeptidase activity hydrolyzes the bond between the c-terminal glycine and the fluorophore. This tetrapeptide also undergoes slow proteolysis by the catalytic subunit of the proteasome. To minimize this background rate of proteolysis cell lysates were incubated with 30 μM MG115 for 30 minutes at 4° C., prior to substrate incubation (>90% proteasome inhibition). Cells were teeated as above, lysed in 250 μL of lysis buffer per sample, and adjusted protein concentration to 0.5 mg/mL prior to incubation with MG115. Next, z-LRGG-AMC substrate was added and fluorescence was quantified of the AMC moiety cleaved by isopeptidase action.

A further data set deals with p53. Kind of data set: p53 accumulation, ratio RKO-E6 cells/RKO cells (immunoblot, densitometry). The data set is classed as cell-based, human. The following applies: 6 h; etoposide 50 μM, MG115, NSC-302979, DBA 20 μM, others 60 μM. As to the method:
(§1) A) Accumulation of polyubiquitin. RKO-E6 cells were treated with DMSO vehicle for 24 h, 37° C., or with the concentrations of test compounds that gave 80% cell death (as determined by cell viability assay at 48 h) for 6, 12, or 24 h, 37° C. […] Schematic depicting p53 degradation via the proteasome pathway in RKO cells versus RKO-E6 cells. The activity of the HPV E6 oncoprotein hastens p53 degradation in RKO-E6 cells. ii. RKO and RKO-E6 cells were treated with vehicle, etoposide (50 μM), MG115 (20 μM), Δ12-PGJ2 (60 μM), NSC-302979 (20 μM, DBA (20 μM), curcumin (60 μM), PGB1 (60 μM), NSC-156236, (60 XM)or DPTP 60 μM for 6 h, 37° C. Lysates were fractionated by SDS-PAGE and their p53 content determined immunochemically. iii. p53 levels were measured by densitometry and the ratio of p53 protein in RKO-E6 cells/RKO cells calculated.
(§2) The medium was removed and cells lysed in 50 mM Tris, pH 7.4, 100 mM NaCl, 2 mM EDTA with 0.1% SDS, 0.1% deoxycholate, 1× complete protease inhibitor mixture. Protein concentration was measured by the Bradford method. Equal portions of the total cell lysate were fractionated from each sample (12.5 μg of protein) by SDS-PAGE. Proteins were transferred to poly(vinylidene difluoride) blocked with 5% (w/v) nonfat dry milk in Trisbuffered saline [20 mM Tris-HCl, pH 7.5, 100 mM sodium chloride, 0.1% (v/v) Tween 20]. Proteins were detected immunochemically by using primary antibodies directed against p53 (1:4000) or ubiquitin (1:1000), followed by horseradish peroxidase-conjugated secondary antibodies (1:4000). Antigen-antibody complexes were detected with enhanced chemiluminescence reagents. Gels were scanned and quantified intensities using Kodak 1D Image Analysis Software.

For data set [2], the system named is cell lines with Wild type p53. As to conditions: analysis according to O'Connor et al., 1997; cited from earlier work.
In another data set the test system is HCT 116 +/+ cells. Kind of data set: MTT cell viability assay, HCT 116 p53 +/+ cells. Background: Tetrazolium dyes change colour on reduction, which living cells bring about.
A further data set concerns RKO-E6 cells. Briefly: MTT cell viability assay, RKO-E6 cells.
Another data set concerns HCT 116 −/− cells. Briefly: MTT cell viability assay, HCT 116 p53 −/− cells. As to conditions: Homo sapiens, HCT-116, 48 h, read-out: Cytotoxic Potency (EC50) HCT −/−.
For data set [3], the system named is polyubiquitin conjugates in RKO-E6 cells. Briefly: Accumulation of polyubiquitin in RKO-E6 cells (immunoblot). It counts as cell-based, human. The following applies: EC80 or 60 μM, 6-24 h. On the procedure: as §1, §2
(In western blotting, separated proteins are transferred to a membrane and probed.)

Data set [4] has as its system ubiquitin isopeptidases. Briefly: Ubiquitin isopeptidase activity, Ub-PEST substrate, lysates of treated RKO and HCT 116 cells. As to conditions: cells treated 6, 20 or 60 μM, 12 h. It counts as cell-based, human. As to the method:
A) Inhibition of isopeptidase proteolysis of Ub-PEST substrate. RKO and HCT 116 cells were treated with DMSO vehicle, 6, 20, or 60 μM of Δ12-PGJ2, DBA, NSC-302979, or curcumin, 60 μM PGB1, 60 μM NSC-156236, or 60 μM DPTP for 12 h, 37° C. Cell lysates from each treatment were incubated with Ub-PEST, as described in materials and methods. Samples were fractionated by SDS-PAGE and proteins detected with ubiquitin epitopes immunochemically (HCT 116 ^+/+ western blot shown as example of raw data). […] B) Inhibition of isopeptidase activity by test panel compounds. Isopeptidase activity was determined by measuring via densitometry, the amount of Ub generated by isopeptidase cleavage of Ub-PEST. Bar graph patterns are DMSO vehicle (black), Δ12-PGJ2 (hatched), DBA (horizontal lines), NSC-302979 (white), PGB1 (diagonally downward right lines), and NSC-156236 (diagonally downward left lines). The amount of Ub generated in the vehicle treated sample (panel A, lane 2) is arbitrarily designated 100%.
Cellular isopeptidase enzymatic activity was measured with two assays that used different substrates. In one assay ubiquitin-PEST (Ub-PEST) was used, a full-length ubiquitin molecule with an 18 amino acid c-terminal peptide extension (total mass=10.5 kDa). Ubiquitin isopeptidases specifically cleave the 18 amino acid peptide extension, releasing full-length ubiquitin (8.5 kDa).
Briefly, 6×10^5 cells were incubated with 0-60 μM of test compounds for 12 hrs. Cells were lysed in 50 μL of 25 mM HEPES, 5 mM EDTA, 0.1% CHAPS, 5 mM ATP, pH 7.5. The protein concentration of each sample was adjusted to 0.3 mg/mL and incubated with 50 μg/mL Ub-PEST for 45 minutes at 25° C. Under these conditions, Ub-PEST hydrolysis occurs at a linear rate. 20 μL samples were mixed with 20 μL 2× Laemmli buffer, boiled briefly, and fractionated by SDSPAGE. Isopeptidase activity was monitored by determining the amount of product (8.5 kDa ubiquitin) formation.

The subject of data set [5] is cell lines with mutant/deleted p53. The following applies: mean of 41-42 cell lines with mutant/deleted p53; read-out: Mutant p53 Mean LC50; cited from earlier work.
Another data set relates to RKO cells. Briefly: MTT cell viability assay, RKO cells. The following applies: 48 h.
A further data set relates to HCT 116 (p53 wt). Briefly: MTS cytotoxicity, HCT 116 (p53 wt). It counts as cell-based. The following applies: Homo sapiens, 48 h. The source says: (§3) Cytotoxicity in Human Colon Tumor (HCT) Cell Lines. To determine if punaglandins elicit cytotoxicity independently of the tumor-suppressor p53, as do other dienone prostaglandins, several cytotoxicity assays were employed. First, cell death effects of all isolated punaglandins were investigated in pairs of isogenic colon cancer cell lines, the HCT 116^+/+ competent cell line and HCT 116^−/− null cell lines. HCT 116^+/+ cells are homozygous for p53^+/+ and p21^+/+; where as, HCT 116^−/− cells lack both alleles for p53 (p53^−/−) or p21 (p21^−/−).
(§4) Each cell line was seeded simultaneously in 96-well plates and incubated for 24 h before treatment with individual punaglandins at various concentrations for 48 additional h. Cytotoxicity was determined using MTS and absorbances were recorded at 490 nm. Half maximal effective concentrations (EC50) and Log EC50s were calculated from a concentration-response curve generated using GraphPad Prism (Table 1).

The test system of data set [6] is ubiquitin isopeptidases. Briefly: In vitro isopeptidase activity in HCT 116 lysates, Ub-PEST. It counts as biochemical, human. The following applies: HCT 116 lysates, 45 min. On the procedure: Isopeptidase Assay. It was hypothesized that the punaglandins would inhibit ubiquitin-isopeptidase activity of the proteasome pathway as does the prostaglandin, Δ^12-PGJ2 (1), but with greater potency because of the chlorinated C-10. To validate this theory, cellular isopeptidase enzymatic activity was measured in vitro after treatment with individual punaglandins, PNG 2 (6), PNG 3 (7), and Z-PNG 4 (9) and in vivo after individual treatment with PNG 4 (8) and PNG 6 (10). This activity was determined utilizing the simple isopeptidase substrate, ubiquitin-PEST (Ub-PEST), a full/length ubiquitin (Ub) molecule fused with an 18-amino acid C-terminal peptide extension that most isopeptidases use as a substrate. The polypeptide extension contains regions rich in Pro (P), Glu (E), Ser (S), and Thr (T) residues called PEST motifs that are responsible for rapid degradation of these and other unstable proteins. Ub isopeptidases specifically cleave this peptide extension, yielding free, full-length Ub. Both the fused Ub-PEST (10.5 kDa) and the cleaved, free Ub (8.5 kDa) can be observed via immunochemical detection.
In Vitro Isopeptidase Activity. PNG 2 (6), PNG 3 (7), and Z-PNG 4 (9) were initially analyzed for isopeptidase activity in vitro in HCT 116 lysates. Cells were lysed with isopeptidase activity buffer and protein concentration adjusted to 0.3 mg/mL per sample. Each sample was subsequently incubated with 2 μM, 6 μM, 20 μM, 60 μM, or 200 μM of PNG 2 (6), PNG 3 (7), Z-PNG 4 (9), Δ^12-PGJ2 (1), and PGA1 (2) in addition to 50 μg/ml of Ub-PEST. Negative control cells were treated with vehicle (0.5% DMSO) and equivalent Ub-PEST. […] The amount of fused Ub-PEST and free Ub product was determined by SDS-PAGE fractionation.

The subject of another data set is HCT 116 (p53^−/−). Kind of data set: MTS cytotoxicity, HCT 116 (p53−/−). It counts as cell-based. The following applies: Homo sapiens, log of EC50 in μM, 48 h, read-out: Log EC50 +/− Standard Error of Log EC50, HCT 116 (p53−/−) (converted).
Description: as §3, §4

Another data set concerns HCT 116 (p21 wt). Kind of data set: MTS cytotoxicity, HCT 116 (p21 wt). The data set is classed as cell-based. The following applies: Homo sapiens, log of EC50 in μM, 48 h, read-out: Log EC50 +/− Standard Error of Log EC50, HCT 116 (p21 wt) (converted).
Description: as §3, §4

The next data set deals with HCT 116 (p21^−/−). Kind of data set: MTS cytotoxicity, HCT 116 (p21−/−). As to conditions: Homo sapiens, log of EC50 in μM, 48 h, read-out: Log EC50 +/− Standard Error of Log EC50, HCT 116 (p21−/−) (converted). The data set is classed as cell-based.
Description: as §3, §4

Where [7] appears, read: log of EC50 in μM, read-out: Log EC50 +/− Standard Error of Log EC50, HCT 116 (p53 wt) (converted).

In the case of `COc1cc(/C=C/C(=O)CC(=O)/C=C/c2ccc(O)c(OC)c2)ccc1O` [Curcumin, curcumin], in the data set on ubiquitin isopeptidases [1], the “inhibition of z-LRGG-AMC hydrolysis by ubiquitin isopeptidases” value is listed as “inhibited ubiquitin isopeptidase activity”. Further, the “ratio of p53 protein [RKO-E6 cells/RKO cells]” value in the data set on p53 is reported as “approached unity”. Further, in data set [2], the “p53 dependence in NCI 60 cell line cancer screening data” value is “act independently of p53”. Besides, in the data set with HCT 116 +/+ cells (48 h, MTT, isogenic pair), the “cell death in HCT 116 +/+ compared with HCT 116 −/− cells” value is listed as “caused cell death with equal potency”. For the same compound, the EC50 is 9700 ± 1100 nM in the data set with HCT 116 +/+ cells (Homo sapiens, HCT-116, 48 h, read-out: Cytotoxic Potency (EC50) HCT +/+); 14900 ± 8500 nM with RKO-E6 cells (Homo sapiens, RKOE6, 48 h, read-out: Cytotoxic Potency (EC50) RKO-E6); 8600 ± 1300 nM in the data set on HCT 116 −/− cells; 12500 ± 5900 nM in the data set on RKO cells (Homo sapiens, RKO, read-out: Cytotoxic Potency (EC50) RKO). Moreover, the “EC80, concentration that gave 80% cell death” value in the data set on RKO-E6 cells (cell viability assay at 48 h, RKO-E6 cells) was found to be 17000 nM. For the same compound, the “cellular accumulation of polyubiquitin conjugates” value in [3] is given as “protein species with polyubiquitin conjugation accumulated in cells”. Further, in the data set with ubiquitin isopeptidases [4], the “inhibition of isopeptidase cleavage of Ub-PEST” value was “inhibited isopeptidase activity in a concentration dependent manner”. Also, the CC50 in [5] was 68000 nM. For the same compound, the “cell death in RKO compared with RKO-E6 cells” value with RKO cells (MTT, isogenic pair) was “caused cell death with equal potency and efficacy”.
`CC/C=C\C/C=C\C[C@@]1(O)C=C(Cl)C(=O)/C1=C/[C@H](OC(C)=O)[C@H](CCCC(=O)OC)OC(C)=O` [PNG 3]: the EC50 is roughly 0.35 µM with HCT 116 (p53 wt) (average over the three compounds, read-out: average EC50 of PNG 3, PNG 4 and PNG 6, cytotoxicity in HCT 116 cell lines); 0.324 µM in the data set with HCT 116 (p53 wt) (setting [7]); 0.372 µM with HCT 116 (p53^−/−); 0.288 µM in the data set with HCT 116 (p21 wt); 0.295 µM in the data set on HCT 116 (p21^−/−). In addition, in the data set on ubiquitin isopeptidases [6], the “concentration at which inhibition of Ub-PEST degradation is initially observed” value is 20 µM. Further, the “concentration of complete (total) inhibition of Ub-PEST degradation” value with ubiquitin isopeptidases [6] was 60 µM.
As for `CCCCC/C=C\C[C@@]1(O)C=C(Cl)C(=O)/C1=C\[C@H](OC(C)=O)[C@H](CCCC(=O)OC)OC(C)=O` [Z-PNG 4], the EC50 in the data set on HCT 116 (p53 wt) (read-out: EC50, cytotoxicity in HCT 116 cell lines) was 0.03 µM; in the data set on HCT 116 (p53 wt) (setting [7]), 0.0316 µM; with HCT 116 (p53^−/−) it was 0.0269 µM; in the data set on HCT 116 (p21 wt), 0.0295 µM; in the data set on HCT 116 (p21^−/−) it was 0.0324 µM. The “concentration at which inhibition of Ub-PEST degradation is initially observed” value in the data set with ubiquitin isopeptidases [6] amounted to 20 µM. The “concentration of complete (total) inhibition of Ub-PEST degradation” value in the data set on ubiquitin isopeptidases [6] was 60 µM.
